Data from patent US20050022267A1, “Methods for Agrobacterium-mediated transformation of dandelion” (priority 2003, published 2005).

Tested on: dandelion leaf explants
Assay: Effect of phyto-hormones on dandelion regeneration: adventitious shoot formation of leaf explants on seedling media
Type: cell-based
Settings: for number of regenerated shoots per explant / percentage of leaf explants displaying adventitious shoot formation: four weeks
Experimental: Dandelion seeds are surface-sterilized in approximately 70% (volume/volume, v/v) ethanol for 30 sec in the bottle. The ethanol is removed and the seeds are soaked in approximately 1% (v/v) bleach with gentle agitation for about 15 minutes. The bleach is poured off and the […] are rinsed thoroughly about 3-4 times with sterilized distilled water. Seeds are germinated and in vitro cultured in the sterile bottles containing seedling medium (Table 1). Over one month-old seedlings are used as stock plants for leaf and root explants. The leaves and roots of stock plants are placed in a petri plate with droplets of sterile water. Explants of leaves (ca. 0.5 cm in diameter) and of roots (ca. 0.5 cm in length) were excised from dandelion plants. Approximately 15 to 20 explants per plate are positioned with the adaxial surface down onto pre-incubation medium (Table 2). The plates are incubated under mixed white and red lights for about 6 days at about 22° C. […] Parentheses indicate the number of regenerated shoots per explant.

[1] = 6-benzyladenine 0.25 mg/L, α-naphthalene acetic acid 0 mg/L
[2] = 6-benzyladenine 0.25 mg/L, α-naphthalene acetic acid 0.1 mg/L
[3] = 6-benzyladenine 0.25 mg/L, α-naphthalene acetic acid 0.5 mg/L
[4] = 6-benzyladenine 0.25 mg/L, α-naphthalene acetic acid 1.0 mg/L
[5] = 6-benzyladenine 0.25 mg/L, α-naphthalene acetic acid 2.0 mg/L
[6] = 6-benzyladenine 0.5 mg/L, α-naphthalene acetic acid 0 mg/L
[7] = 6-benzyladenine 0.5 mg/L, α-naphthalene acetic acid 0.1 mg/L
[8] = 6-benzyladenine 0.5 mg/L, α-naphthalene acetic acid 0.5 mg/L
[9] = 6-benzyladenine 0.5 mg/L, α-naphthalene acetic acid 1.0 mg/L
[10] = 6-benzyladenine 0.5 mg/L, α-naphthalene acetic acid 2.0 mg/L
[11] = 6-benzyladenine 1.0 mg/L, α-naphthalene acetic acid 0 mg/L
[12] = 6-benzyladenine 1.0 mg/L, α-naphthalene acetic acid 0.1 mg/L
[13] = 6-benzyladenine 1.0 mg/L, α-naphthalene acetic acid 0.5 mg/L
[14] = 6-benzyladenine 1.0 mg/L, α-naphthalene acetic acid 1.0 mg/L
[15] = 6-benzyladenine 1.0 mg/L, α-naphthalene acetic acid 2.0 mg/L
[16] = 6-benzyladenine 2.0 mg/L, α-naphthalene acetic acid 0 mg/L
[17] = 6-benzyladenine 2.0 mg/L, α-naphthalene acetic acid 0.1 mg/L
[18] = 6-benzyladenine 2.0 mg/L, α-naphthalene acetic acid 0.5 mg/L
[19] = 6-benzyladenine 2.0 mg/L, α-naphthalene acetic acid 1.0 mg/L
[20] = 6-benzyladenine 2.0 mg/L, α-naphthalene acetic acid 2.0 mg/L
[21] = kinetin 0.5 mg/L, α-naphthalene acetic acid 0 mg/L
[22] = kinetin 0.5 mg/L, α-naphthalene acetic acid 0.1 mg/L
[23] = kinetin 0.5 mg/L, α-naphthalene acetic acid 0.5 mg/L
[24] = kinetin 0.5 mg/L, α-naphthalene acetic acid 1.0 mg/L
[25] = kinetin 0.5 mg/L, α-naphthalene acetic acid 2.0 mg/L
[26] = kinetin 1.0 mg/L, α-naphthalene acetic acid 0 mg/L
[27] = kinetin 1.0 mg/L, α-naphthalene acetic acid 0.1 mg/L
[28] = kinetin 1.0 mg/L, α-naphthalene acetic acid 0.5 mg/L
[29] = kinetin 1.0 mg/L, α-naphthalene acetic acid 1.0 mg/L
[30] = kinetin 1.0 mg/L, α-naphthalene acetic acid 2.0 mg/L
[31] = kinetin 2.0 mg/L, α-naphthalene acetic acid 0 mg/L
[32] = kinetin 2.0 mg/L, α-naphthalene acetic acid 0.1 mg/L
[33] = kinetin 2.0 mg/L, α-naphthalene acetic acid 0.5 mg/L
[34] = kinetin 2.0 mg/L, α-naphthalene acetic acid 1.0 mg/L
[35] = kinetin 2.0 mg/L, α-naphthalene acetic acid 2.0 mg/L
[36] = kinetin 3.0 mg/L, α-naphthalene acetic acid 0 mg/L
[37] = kinetin 3.0 mg/L, α-naphthalene acetic acid 0.1 mg/L
[38] = kinetin 3.0 mg/L, α-naphthalene acetic acid 0.5 mg/L
[39] = kinetin 3.0 mg/L, α-naphthalene acetic acid 1.0 mg/L
[40] = kinetin 3.0 mg/L, α-naphthalene acetic acid 2.0 mg/L
[41] = α-naphthalene acetic acid 0.1 mg/L, 6-benzyladenine 0 mg/L
[42] = α-naphthalene acetic acid 0.1 mg/L, kinetin 0 mg/L
[43] = α-naphthalene acetic acid 0.5 mg/L, 6-benzyladenine 0 mg/L
[44] = α-naphthalene acetic acid 0.5 mg/L, kinetin 0 mg/L
[45] = α-naphthalene acetic acid 1.0 mg/L, 6-benzyladenine 0 mg/L
[46] = α-naphthalene acetic acid 1.0 mg/L, kinetin 0 mg/L
[47] = α-naphthalene acetic acid 2.0 mg/L, 6-benzyladenine 0 mg/L
[48] = α-naphthalene acetic acid 2.0 mg/L, kinetin 0 mg/L

For 6-benzyladenine, the “suitability for shoot regeneration of dandelion” value (1 or 2 mg/l 6-benzyladenine and 0.1 mg/l α-naphthalene acetic acid) was “most suitable for shoot regeneration”, the “number of regenerated shoots per explant” value [1] was “(21.2) shoots per explant” and the “percentage of leaf explants displaying adventitious shoot formation” value (“percentage” below) [1] was 60.0%. The “number of regenerated shoots per explant” value [2] was “(16.3) shoots per explant”, the “percentage” value [2] was 63.0% and the “number of regenerated shoots per explant” value [3] was “(12.0) shoots per explant”. For the same compound, the “percentage” value [3] was 78.0%, the “number of regenerated shoots per explant” value [4] was “(24.5) shoots per explant” and the “percentage” value [4] was 97.0%. For the same compound, the “number of regenerated shoots per explant” value [5] was “(3.6) shoots per explant”, the “percentage” value [5] was 90.0% and the “number of regenerated shoots per explant” value [6] was “(17.4) shoots per explant”. The “percentage” value [6] was 75.0%, the “number of regenerated shoots per explant” value [7] was “(23.8) shoots per explant” and the “percentage” value [7] was 99.9%. The “number of regenerated shoots per explant” value [8] was “(23.7) shoots per explant”, the “percentage” value [8] was 99.9% and the “number of regenerated shoots per explant” value [9] was “(21.7) shoots per explant”. The “percentage” value [9] was 88.0%, the “number of regenerated shoots per explant” value [10] was “(3.2) shoots per explant” and the “percentage” value [10] was 40.0%. The “number of regenerated shoots per explant” value [11] was “(17.4) shoots per explant”, the “percentage” value [11] was 85.0% and the “number of regenerated shoots per explant” value [12] was “(25.1) shoots per explant”. The “percentage” value [12] was 99.9%, the “number of regenerated shoots per explant” value [13] was “(20.4) shoots per explant” and the “percentage” value [13] was 99.9%. The “number of regenerated shoots per explant” value [14] was “(13.1) shoots per explant”, the “percentage” value [14] was 83.0% and the “number of regenerated shoots per explant” value [15] was “(5.9) shoots per explant”. The “percentage” value [15] was 99.9%, the “number of regenerated shoots per explant” value [16] was “(16.0) shoots per explant” and the “percentage” value [16] was 99.9%. For the same compound, the “number of regenerated shoots per explant” value [17] was “(17.4) shoots per explant”, the “percentage” value [17] was 99.9% and the “number of regenerated shoots per explant” value [18] was “(20.7) shoots per explant”. The “percentage” value [18] was 99.9%, the “number of regenerated shoots per explant” value [19] was “(8.5) shoots per explant” and the “percentage” value [19] was 99.9%. The “number of regenerated shoots per explant” value [20] was “(5.4) shoots per explant” and the “percentage” value [20] was 99.9%.

For c1coc(CNc2ncnc3[nH]cnc23)c1 [Kinetin, kinetin], the “suitability for dandelion shoot regeneration” value (0.05 mg/l α-naphthalene acetic acid and 1.0 mg/l kinetin or 0.1 mg/l α-naphthalene acetic acid and 2.0 mg/l kinetin) was “also suitable for dandelion shoot regeneration”, the “number of regenerated shoots per explant” value [21] was “(24.8) shoots per explant” and the “percentage” value [21] was 99.9%. The “number of regenerated shoots per explant” value [22] was “(19.8) shoots per explant”, the “percentage” value [22] was 96.7% and the “number of regenerated shoots per explant” value [23] was “(16.9) shoots per explant”. The “percentage” value [23] was 99.9%, the “number of regenerated shoots per explant” value [24] was “(8.1) shoots per explant” and the “percentage” value [24] was 99.9%. For the same compound, the “number of regenerated shoots per explant” value [25] was “(5.8) shoots per explant”, the “percentage” value [25] was 99.9% and the “number of regenerated shoots per explant” value [26] was “(22.7) shoots per explant”. For the same compound, the “percentage” value [26] was 99.9%, the “number of regenerated shoots per explant” value [27] was “(23.4) shoots per explant” and the “percentage” value [27] was 99.9%. The “number of regenerated shoots per explant” value [28] was “(16.8) shoots per explant”, the “percentage” value [28] was 99.9% and the “number of regenerated shoots per explant” value [29] was “(6.7) shoots per explant”. For the same compound, the “percentage” value [29] was 99.9%, the “number of regenerated shoots per explant” value [30] was “(9.8) shoots per explant” and the “percentage” value [30] was 99.9%. For the same compound, the “number of regenerated shoots per explant” value [31] was “(21.9) shoots per explant”, the “percentage” value [31] was 95.0% and the “number of regenerated shoots per explant” value [32] was “(23.6) shoots per explant”. The “percentage” value [32] was 99.9%, the “number of regenerated shoots per explant” value [33] was “(20.3) shoots per explant” and the “percentage” value [33] was 99.9%. The “number of regenerated shoots per explant” value [34] was “(13.4) shoots per explant”, the “percentage” value [34] was 95.5% and the “number of regenerated shoots per explant” value [35] was “(7.3) shoots per explant”. For the same compound, the “percentage” value [35] was 96.2%, the “number of regenerated shoots per explant” value [36] was “(14.7) shoots per explant” and the “percentage” value [36] was 99.9%. The “number of regenerated shoots per explant” value [37] was “(19.3) shoots per explant”, the “percentage” value [37] was 99.9% and the “number of regenerated shoots per explant” value [38] was “(25.5) shoots per explant”. The “percentage” value [38] was 99.9%, the “number of regenerated shoots per explant” value [39] was “(8.9) shoots per explant” and the “percentage” value [39] was 99.9%. For the same compound, the “number of regenerated shoots per explant” value [40] was “(8.1) shoots per explant” and the “percentage” value [40] was 99.9%.

O=C(O)Cc1cccc2ccccc12 [α-Naphthalene acetic acid, α-naphthalene acetic acid] was tested, and the “number of regenerated shoots per explant” value [41] was “(0.0) shoots per explant”, the “percentage” value [41] was 0.0% and the “number of regenerated shoots per explant” value [42] was “(0.0) shoots per explant”. The “percentage” value [42] was 0.0%, the “number of regenerated shoots per explant” value [43] was “(2.0) shoots per explant” and the “percentage” value [43] was 20.0%. The “number of regenerated shoots per explant” value [44] was “(0.0) shoots per explant”, the “percentage” value [44] was 0.0% and the “number of regenerated shoots per explant” value [45] was “(0.0) shoots per explant”. The “percentage” value [45] was 0.0%, the “number of regenerated shoots per explant” value [46] was “(0.0) shoots per explant” and the “percentage” value [46] was 5.0%. The “number of regenerated shoots per explant” value [47] was “(0.0) shoots per explant”, the “percentage” value [47] was 0.0% and the “number of regenerated shoots per explant” value [48] was “(0.0) shoots per explant”. The “percentage” value [48] was 0.0%.
